Measurements: publication PMC4032193 (Journal of Medicinal Chemistry, 2014)

Test system: HepG2 (hepatocellular carcinoma) cell line
Conditions: human

## CC(=O)O[C@H]1C[C@H]2[C@@H]([C@H](OC(C)=O)C[C@@H]3CC(NCCCNc4ccnc5cc(Cl)ccc45)CC[C@@]32C)[C@@H]2CC[C@H]([C@H](C)CCCNCCCNc3ccnc4cc(Cl)ccc34)[C@@]12C (mixture of isomers) [Compound 63]
  SI HepG2/D6: 43/32/24
  SI HepG2/TM91C235: 43/32/24
  SI HepG2/W2: 43/32/24

## CC(=O)O[C@@H]1CC[C@@]2(C)[C@@H](C1)C[C@@H](OC(C)=O)[C@@H]1[C@@H]2C[C@H](OC(C)=O)[C@]2(C)[C@@H]([C@H](C)CCCNCCCNc3ccnc4cc(Cl)ccc34)CC[C@@H]12 [Compound 13]
  SI HepG2/D6: 104/101/67
  SI HepG2/TM91C235: 104/101/67
  SI HepG2/W2: 104/101/67

## CC(=O)O[C@@H]1CC[C@@]2(C)[C@@H](C1)C[C@@H](OC(C)=O)[C@@H]1[C@@H]2C[C@H](OC(C)=O)[C@]2(C)[C@@H]([C@H](C)CCCNCCCCNc3ccnc4cc(Cl)ccc34)CC[C@@H]12 [Compound 14]
  SI HepG2/D6: 107/55/47
  SI HepG2/TM91C235: 107/55/47
  SI HepG2/W2: 107/55/47

## CC(=O)O[C@@H]1CC[C@@]2(C)[C@@H](C1)C[C@@H](OC(C)=O)[C@@H]1[C@@H]2C[C@H](OC(C)=O)[C@]2(C)[C@@H]([C@H](C)CCCNCCCCCCNc3ccnc4cc(Cl)ccc34)CC[C@@H]12 [Compound 15]
  SI HepG2/D6: 47/29/25
  SI HepG2/TM91C235: 47/29/25
  SI HepG2/W2: 47/29/25

## CC(=O)O[C@H]1C[C@H]2[C@@H]([C@H](OC(C)=O)C[C@@H]3C[C@H](O)CC[C@@]32C)[C@@H]2CC[C@H]([C@H](C)CCCNCCNc3ccnc4cc(Cl)ccc34)[C@@]12C [Compound 16, N-(3α-Hydroxy-7α,12α-diacetoxy-5β-cholan-24-yl)-N′-(7′-chloroquinolin-4′-yl)ethane-1,2-diamine]
  SI HepG2/D6: 415/938/407
  SI HepG2/TM91C235: 415/938/407
  SI HepG2/W2: 415/938/407

## CC(=O)O[C@H]1C[C@H]2[C@@H]([C@H](OC(C)=O)C[C@@H]3C[C@H](O)CC[C@@]32C)[C@@H]2CC[C@H]([C@H](C)CCCNCCCCNc3ccnc4cc(Cl)ccc34)[C@@]12C [Compound 18]
  SI HepG2/D6: 47/30/28
  SI HepG2/TM91C235: 47/30/28
  SI HepG2/W2: 47/30/28

## CC(=O)O[C@H]1C[C@H]2[C@@H]([C@H](OC(C)=O)C[C@@H]3C[C@H](O)CC[C@@]32C)[C@@H]2CC[C@H]([C@H](C)CCCNCCCCCCNc3ccnc4cc(Cl)ccc34)[C@@]12C [Compound 19]
  SI HepG2/D6: 60/56/50
  SI HepG2/TM91C235: 60/56/50
  SI HepG2/W2: 60/56/50

## CC(=O)O[C@@H]1CC[C@@]2(C)[C@@H](C1)C[C@@H](OC(C)=O)[C@@H]1[C@@H]2C[C@H](OC(C)=O)[C@]2(C)[C@@H]([C@H](C)CCCN(C)CCNc3ccnc4cc(Cl)ccc34)CC[C@@H]12 [Compound 20, N-Methyl-N-(3α,7α,12α-triacetoxy-5β-cholan-24-yl)-N′-(7′-chloroquinolin-4′-yl)ethane-1,2-diamine]
  SI HepG2/D6: 98/242/79
  SI HepG2/TM91C235: 98/242/79
  SI HepG2/W2: 98/242/79

## CC(=O)O[C@@H]1CC[C@@]2(C)[C@@H](C1)C[C@@H](OC(C)=O)[C@@H]1[C@@H]2C[C@H](OC(C)=O)[C@]2(C)[C@@H]([C@H](C)CCCN(C)CCCNc3ccnc4cc(Cl)ccc34)CC[C@@H]12 [Compound 21]
  SI HepG2/D6: 134/229/71
  SI HepG2/TM91C235: 134/229/71
  SI HepG2/W2: 134/229/71

## CC(=O)O[C@H]1C[C@H]2[C@@H]([C@H](OC(C)=O)C[C@@H]3CC(=O)CC[C@@]32C)[C@@H]2CC[C@H]([C@H](C)CCCNCCNc3ccnc4cc(Cl)ccc34)[C@@]12C [Compound 22, N-(3-Oxo-7α,12α-diacetoxy-5β-cholan-24-yl)-N′-(7′-chloroquinolin-4′-yl)ethane-1,2-diamine]
  SI HepG2/D6: 299/571/109
  SI HepG2/TM91C235: 299/571/109
  SI HepG2/W2: 299/571/109

## CC(=O)O[C@H]1C[C@H]2[C@@H]([C@H](OC(C)=O)C[C@@H]3CC(=O)CC[C@@]32C)[C@@H]2CC[C@H]([C@H](C)CCCNCCCNc3ccnc4cc(Cl)ccc34)[C@@]12C [Compound 23]
  SI HepG2/D6: 161/182/121
  SI HepG2/TM91C235: 161/182/121
  SI HepG2/W2: 161/182/121

## CC(=O)O[C@H]1C[C@H]2[C@@H]([C@H](OC(C)=O)C[C@@H]3CC(=O)CC[C@@]32C)[C@@H]2CC[C@H]([C@H](C)CCCNCCCCNc3ccnc4cc(Cl)ccc34)[C@@]12C [Compound 24]
  SI HepG2/D6: 7/6/6
  SI HepG2/TM91C235: 7/6/6
  SI HepG2/W2: 7/6/6

## CC(=O)O[C@H]1C[C@H]2[C@@H]([C@H](OC(C)=O)C[C@@H]3CC(=O)CC[C@@]32C)[C@@H]2CC[C@H]([C@H](C)CCCNCCCCCCNc3ccnc4cc(Cl)ccc34)[C@@]12C [Compound 25]
  SI HepG2/D6: 30/27/25
  SI HepG2/TM91C235: 30/27/25
  SI HepG2/W2: 30/27/25

## CC(=O)N[C@@H]1CC[C@@]2(C)[C@@H](C1)C[C@@H](OC(C)=O)[C@@H]1[C@@H]2C[C@H](OC(C)=O)[C@]2(C)[C@@H]([C@H](C)CCCNCCNc3ccnc4cc(Cl)ccc34)CC[C@@H]12 [Compound 36, 24-N-[(7-Chloroquinoline-4-yl)amino]ethylamino-3α-acetamido-7α,12α-diacetoxy-5β-cholane]
  SI HepG2/D6: 126/116/126
  SI HepG2/TM91C235: 126/116/126
  SI HepG2/W2: 126/116/126

## CC(=O)N[C@@H]1CC[C@@]2(C)[C@@H](C1)C[C@@H](OC(C)=O)[C@@H]1[C@@H]2C[C@H](OC(C)=O)[C@]2(C)[C@@H]([C@H](C)CCCNCCCNc3ccnc4cc(Cl)ccc34)CC[C@@H]12 [Compound 37]
  SI HepG2/D6: 55/114/51
  SI HepG2/TM91C235: 55/114/51
  SI HepG2/W2: 55/114/51

## CC(=O)O[C@H]1C[C@H]2[C@@H]([C@H](OC(C)=O)C[C@@H]3C[C@H](NS(C)(=O)=O)CC[C@@]32C)[C@@H]2CC[C@H]([C@H](C)CCCNCCNc3ccnc4cc(Cl)ccc34)[C@@]12C [Compound 38]
  SI HepG2/D6: 131/301/222
  SI HepG2/TM91C235: 131/301/222
  SI HepG2/W2: 131/301/222

## CC(=O)O[C@H]1C[C@H]2[C@@H]([C@H](OC(C)=O)C[C@@H]3C[C@H](NS(C)(=O)=O)CC[C@@]32C)[C@@H]2CC[C@H]([C@H](C)CCCNCCCNc3ccnc4cc(Cl)ccc34)[C@@]12C [Compound 39]
  SI HepG2/D6: 130/119/147
  SI HepG2/TM91C235: 130/119/147
  SI HepG2/W2: 130/119/147

## CC(=O)O[C@H]1C[C@H]2[C@@H]([C@H](OC(C)=O)C[C@@H]3C[C@H](NC(=O)OC(C)(C)C)CC[C@@]32C)[C@@H]2CC[C@H]([C@H](C)CCCNCCNc3ccnc4cc(Cl)ccc34)[C@@]12C [Compound 40, 24-N-[(7-Chloroquinoline-4-yl)amino]ethylamino-3α-N′-tert-butylcarbamate-7α,12α-diacetoxy-5β-cholane]
  SI HepG2/D6: 1743/531/464
  SI HepG2/TM91C235: 1743/531/464
  SI HepG2/W2: 1743/531/464

## CC(=O)O[C@H]1C[C@H]2[C@@H]([C@H](OC(C)=O)C[C@@H]3C[C@H](NS(C)(=O)=O)CC[C@@]32C)[C@@H]2CC[C@H]([C@H](C)CCCN(C)CCNc3ccnc4cc(Cl)ccc34)[C@@]12C [Compound 42, 24-N-Methyl-N-[(7-chloroquinoline-4-yl)amino]ethylamino-3α-methanesulfonamide-7α,12α-diacetoxy-5β-cholane]
  SI HepG2/D6: 1194/2707/2197
  SI HepG2/TM91C235: 1194/2707/2197
  SI HepG2/W2: 1194/2707/2197

## CC(=O)O[C@H]1C[C@H]2[C@@H]([C@H](OC(C)=O)C[C@@H]3C[C@H](NC(=O)OC(C)(C)C)CC[C@@]32C)[C@@H]2CC[C@H]([C@H](C)CCCN(C)CCNc3ccnc4cc(Cl)ccc34)[C@@]12C [Compound 44, 24-N-Methyl-N-[(7-chloroquinoline-4-yl)amino]ethylamino-3α-N′-tert-butylcarbamate-7α,12α-diacetoxy-5β-cholane]
  SI HepG2/D6: 293/264/144
  SI HepG2/TM91C235: 293/264/144
  SI HepG2/W2: 293/264/144

## CC(=O)O[C@H]1C[C@H]2[C@@H]([C@H](OC(C)=O)C[C@@H]3C[C@H](N(C)C)CC[C@@]32C)[C@@H]2CC[C@H]([C@H](C)CCCNCCCNc3ccnc4cc(Cl)ccc34)[C@@]12C [Compound 51]
  SI HepG2/D6: 382/137/156
  SI HepG2/TM91C235: 382/137/156
  SI HepG2/W2: 382/137/156

## CC(=O)O[C@H]1C[C@H]2[C@@H]([C@H](OC(C)=O)C[C@@H]3C[C@H](N)CC[C@@]32C)[C@@H]2CC[C@H]([C@H](C)CCCNCCNc3ccnc4cc(Cl)ccc34)[C@@]12C [Compound 52, 24-N-[(7-Chloroquinoline-4-yl)amino]ethylamino-3α-amino-7α,12α-diacetoxy-5β-cholane]
  IC50: 3.77 µM

## CC(=O)O[C@H]1C[C@H]2[C@@H]([C@H](OC(C)=O)C[C@@H]3C[C@H](N)CC[C@@]32C)[C@@H]2CC[C@H]([C@H](C)CCCNCCCNc3ccnc4cc(Cl)ccc34)[C@@]12C [Compound 53]
  SI HepG2/D6: 54/75/43
  SI HepG2/TM91C235: 54/75/43
  SI HepG2/W2: 54/75/43

## CC(=O)O[C@H]1C[C@H]2[C@@H]([C@H](OC(C)=O)C[C@@H]3C[C@H](N)CC[C@@]32C)[C@@H]2CC[C@H]([C@H](C)CCCN(C)CCCNc3ccnc4cc(Cl)ccc34)[C@@]12C [Compound 55]
  SI HepG2/D6: 45/44/50
  SI HepG2/TM91C235: 45/44/50
  SI HepG2/W2: 45/44/50

## CC(=O)O[C@H]1C[C@H]2[C@@H]([C@H](OC(C)=O)C[C@@H]3C[C@H](N)CC[C@@]32C)[C@@H]2CC[C@H]([C@H](C)CCCN(CCC[C@@H](C)[C@H]3CC[C@H]4[C@@H]5[C@H](OC(C)=O)C[C@@H]6C[C@H](N)CC[C@]6(C)[C@H]5C[C@H](OC(C)=O)[C@]34C)CCNc3ccnc4cc(Cl)ccc34)[C@@]12C [Compound 60, N,N-Di(3α-amino-7α,12α-diacetoxy-5β-cholan-24-yl)-N′-(7′-chloroquinoline-4′-yl)-1,3-ethanediamine]
  SI HepG2/D6: 21/19/19
  SI HepG2/TM91C235: 21/19/19
  SI HepG2/W2: 21/19/19
